This is an account of results in ChEMBL document CHEMBL4699579, “A Peptidyl Inhibitor that Blocks Calcineurin-NFAT Interaction and Prevents Acute Lung Injury” (J Med Chem, 2020).

Each structure is given as a SMILES string. Active and inactive are the calls of the source. The calls are words filed in the database; no cut-off is given here. Positions of bridges follow the written chain, without caps; N, C: chain ends. Non-standard residues stand in square brackets, D forms with d. Residues, ends and D or L forms follow the SMILES beside them. Chains are numbered I, II in the order given. *: point of attachment. Benzoyl(2,3-Cl2) = O=C(c1cccc(Cl)c1Cl)*; 2Nal = N[C@@H](Cc1ccc2ccccc2c1)C(=O)O; Tle = CC(C)(C)[C@H](N)C(=O)O; AEEA = NCCOCCOCC(=O)O Bounds are passed on as bounds.

Data set [1] in a line: Drug uptake in cytosol in human HeLa cells assessed as cytosolic delivery efficiency at 5 uM incubated for 2 hrs by floe cytometry relative to control. In kind it is ADME, subcellular.
Data set [2] concerns Mus musculus. Description: Anti-inflammatory activity in BALB/c mouse model of LPS-induced ALI assessed as reduction in LPS-induced TNFalpha in BALF at 10 mg/kg dosed via intranasal insuffIation pre-treated 2 hrs before LPS stimulation for 16 hrs. The conditions noted are these: time 18.0 hrs. Type of data set: functional, organism-based.
In data set [3] the test system is Mus musculus. Description: Anti-inflammatory activity in BALB/c mouse model of LPS-induced ALI assessed as reduction in number of neutrophils BALF at 10 mg/kg dosed via intranasal insuffIation pre-treated 2 hrs before LPS stimulation for 16 hrs. The conditions noted are these: time 18.0 hrs. Type of data set: functional, organism-based.
Data set [4] relates to Mus musculus. Description: Anti-inflammatory activity in BALB/c mouse model of LPS-induced ALI assessed as reduction in LPS-induced IL6 in BALF at 5 mg/kg dosed via intranasal insuffIation pre-treated 2 hrs before LPS stimulation for 16 hrs. In kind it is functional, organism-based. The conditions noted are these: dose mg/kg 5-10, time 18.0 hrs.
In data set [5] the test system is Mus musculus. Kind of data set: Anti-inflammatory activity in BALB/c mouse model of LPS-induced ALI assessed as reduction in lung wet-to-dry ratios at 10 mg/kg dosed via intranasal insuffIation pre-treated 2 hrs before LPS stimulation for 16 hrs. In kind it is functional, organism-based. The conditions noted are these: time 18.0 hrs.
Data set [6] deals with Mus musculus. Description: Anti-inflammatory activity in BALB/c mouse model of LPS-induced ALI assessed as reduction in LPS-induced IL6 in plasma at 5 mg/kg dosed via intranasal insuffIation pre-treated 2 hrs before LPS stimulation for 16 hrs. The conditions noted are these: dose mg/kg 5-10, time 18.0 hrs. Type of data set: functional, organism-based.
The test system of data set [7] is Mus musculus. Kind of data set: Anti-inflammatory activity in BALB/c mouse model of LPS-induced ALI assessed as reduction in LPS-induced IL6 in BALF at 10 mg/kg dosed via intranasal insuffIation pre-treated 2 hrs before LPS stimulation for 16 hrs. In kind it is functional, organism-based. The conditions noted are these: time 18.0 hrs.
The test system of data set [8] is Mus musculus. Description: Anti-inflammatory activity in BALB/c mouse model of LPS-induced ALI assessed as reduction in LPS-induced TNFalpha in plasma at 5 mg/kg dosed via intranasal insuffIation pre-treated 2 hrs before LPS stimulation for 16 hrs. Type of data set: functional, organism-based. The conditions noted are these: dose mg/kg 5-10, time 18.0 hrs.
The next data set concerns HeLa. Description: Toxicity in human HeLa cells assessed as reduction in cell viability up to 25 uM incubated for 72 hrs by MTT assay. Type of data set: cell-based. (In general: Tetrazolium dyes change colour on reduction, which living cells bring about.)
Data set [9] has as its system Mus musculus. Kind of data set: Anti-inflammatory activity in BALB/c mouse model of LPS-induced ALI assessed as reduction in LPS-induced TNFalpha in plasma at 10 mg/kg dosed via intranasal insuffIation pre-treated 2 hrs before LPS stimulation for 16 hrs. The conditions noted are these: time 18.0 hrs. In kind it is functional, organism-based.
For data set [10], the system named is Mus musculus. Kind of data set: Anti-inflammatory activity in BALB/c mouse model of LPS-induced ALI assessed as reduction in LPS-induced extravasated BALF protein in BALF at 10 mg/kg dosed via intranasal insuffIation pre-treated 2 hrs before LPS stimulation for 16 hrs. Type of data set: functional, organism-based. The conditions noted are these: time 18.0 hrs.

Data set [11] can be described thus: Toxicity in mouse lung macrophages cells assessed as reduction in cell viability up to 25 uM incubated for 72 hrs by MTT assay. Type of data set: tissue-based. The conditions noted are these: macrophage.
For data set [12], the system named is Mus musculus. Kind of data set: Anti-inflammatory activity in BALB/c mouse model of LPS-induced ALI assessed as reduction in number of neutrophils BALF at 5 mg/kg dosed via intranasal insuffIation pre-treated 2 hrs before LPS stimulation for 16 hrs. Type of data set: functional, organism-based. The conditions noted are these: dose mg/kg 5-10, time 18.0 hrs.

Data set [13] relates to Mus musculus. Kind of data set: Anti-inflammatory activity in BALB/c mouse model of LPS-induced ALI assessed as reduction in LPS-induced IL6 in plasma at 10 mg/kg dosed via intranasal insuffIation pre-treated 2 hrs before LPS stimulation for 16 hrs. In kind it is functional, organism-based. The conditions noted are these: time 18.0 hrs.
The test system of data set [14] is Mus musculus. Description: Anti-inflammatory activity in BALB/c mouse model of LPS-induced ALI assessed as reduction in LPS-induced extravasated BALF protein in BALF at 5 mg/kg dosed via intranasal insuffIation pre-treated 2 hrs before LPS stimulation for 16 hrs. The conditions noted are these: dose mg/kg 5-10, time 18.0 hrs. In kind it is functional, organism-based.

The subject of data set [15] is Macrophage. Kind of data set: Inhibition of calcineurin-NFATc3 interaction in mouse lung macrophages assessed as reduction in LPS-induced TNFalpha production at 0.01 to 10 uM pre-incubated 4 hrs before LPS stimulation for 8 hrs by ELISA. In kind it is tissue-based. The conditions noted are these: dose microM 0.01-10, time 12.0 hrs.
In data set [16] the test system is Mus musculus. Kind of data set: Anti-inflammatory activity in BALB/c mouse model of LPS-induced ALI assessed as reduction in lung wet-to-dry ratios at 5 mg/kg dosed via intranasal insuffIation pre-treated 2 hrs before LPS stimulation for 16 hrs. The conditions noted are these: dose mg/kg 5-10, time 18.0 hrs. Type of data set: functional, organism-based.
Data set [17] can be described thus: Half life in human serum. In kind it is ADME, cell-free.
For data set [18], the system named is Macrophage. Description: Inhibition of calcineurin-NFATc3 interaction in mouse lung macrophages assessed as reduction in LPS-induced IL6 production at 0.01 to 10 uM pre-incubated 4 hrs before LPS stimulation for 8 hrs by ELISA. The conditions noted are these: dose microM 0.01-10, time 12.0 hrs. Type of data set: tissue-based. In general terms: ELISA stands for enzyme-linked immunosorbent assay.

Data set [19] has as its system Mus musculus. Description: Anti-inflammatory activity in BALB/c mouse model of LPS-induced ALI assessed as reduction in LPS-induced TNFalpha in BALF at 5 mg/kg dosed via intranasal insuffIation pre-treated 2 hrs before LPS stimulation for 16 hrs. Type of data set: functional, organism-based. The conditions noted are these: dose mg/kg 5-10, time 18.0 hrs.
For another data set, the system named is Jurkat. Kind of data set: Inhibition of Calcineurin in human Jurkat cells. In kind it is cell-based.
The subject of data set [20] is Macrophage. Kind of data set: Inhibition of calcineurin-NFATc3 interaction in mouse bone marrow-derived macrophages assessed as reduction in LPS-induced NFATc3 nuclear translocation at 1 uM pre-incubated before LPS stimulation for 1 hr using biotinylated compound by immunofluorescence staining assay.
For data set [21], the system named is Macrophage. Kind of data set: Inhibition of LPS-induced IL6 production in mouse lung macrophages at 10 uM pre-incubated 4 hrs before LPS stimulation for 8 hrs by ELISA. In kind it is functional, cell-based. The conditions noted are these: time 12.0 hrs.
In data set [22] the test system is Macrophage. Kind of data set: Inhibition of LPS-induced TNFalpha production in mouse lung macrophages at 10 uM pre-incubated 4 hrs before LPS stimulation for 8 hrs by ELISA. In kind it is functional, cell-based. The conditions noted are these: time 12.0 hrs.

With `N=C(N)NCCC[C@@H]1NC(=O)[C@H](Cc2ccc3ccccc3c2)NC(=O)[C@@H](Cc2ccccc2)NC(=O)[C@H](CCC(N)=O)NC(=O)[C@@H](CCCNC(=N)N)NC(=O)[C@H](CCCNC(=N)N)NC(=O)[C@@H](CCCNC(=N)N)NC1=O` (cyclo([2Nal]R[dR]R[dR]Q[dF])), the Drug uptake in [1] stood at 62%.
`CC[C@H](C)[C@H](NC(=O)[C@@H](NC(=O)c1cccc(Cl)c1Cl)C(C)(C)C)C(=O)N[C@H](C(=O)N[C@H](C(=O)N[C@H](C(=O)N[C@@H](CCC(N)=O)C(=O)N[C@@H](Cc1c[nH]cn1)C(=O)N[C@H](CC(C)C)C(=O)N[C@@H](CO)C(=O)NCCOCCOCC(=O)N[C@@H](CCCCNC(=O)CC[C@@H]1NC(=O)[C@@H](CCCNC(=N)N)NC(=O)[C@H](CCCNC(=N)N)NC(=O)[C@@H](CCCNC(=N)N)NC(=O)[C@H](CCCNC(=N)N)NC(=O)[C@H](Cc2ccc3ccccc3c2)NC(=O)[C@@H](Cc2ccccc2)NC1=O)C(N)=O)[C@@H](C)O)[C@@H](C)CC)C(C)(C)C` (I: {Benzoyl(2,3-Cl2)}-[Tle]I[Tle]ITQH[dL]S[AEEA]K-NH2 / II: cyclo([2Nal]R[dR]R[dR]E[dF]); amide I:11-II:6): the result in the data set with Mus musculus [2], in the data set on Mus musculus [3], in the data set with Mus musculus [4], with Mus musculus [5], in the data set with Mus musculus [6] and in the data set on Mus musculus [7] was inactive. In addition, the outcome in the data set with Mus musculus [8], in the data set with Mus musculus [9], in the data set with Mus musculus [10], in the data set with Mus musculus [12], in the data set on Mus musculus [13] and with Mus musculus [14] was inactive. The outcome in the data set with Mus musculus [16] and in the data set with Mus musculus [19] was inactive. Besides, the Activity entry (in the data set on HeLa; in data set [11]) was “Non-Toxic” each time. Further, the inhibition entry with Macrophage [15] and with Macrophage [18] was “inactive” each time. In data set [17], this compound came in with a half-life of more than 24 h.
With `CC[C@H](C)[C@H](NC(=O)[C@@H](NC(=O)c1cccc(Cl)c1Cl)C(C)(C)C)C(=O)N[C@H](C(=O)N[C@H](C(=O)N[C@H](C(=O)N[C@@H](CCC(N)=O)C(=O)N[C@@H](Cc1c[nH]cn1)C(=O)N[C@H](CC(C)C)C(=O)N[C@@H](CO)C(=O)NCCOCCOCC(=O)N[C@@H](CCCCNC(=O)CC[C@@H]1NC(=O)[C@@H](CCCNC(=N)N)NC(=O)[C@H](CCCNC(=N)N)NC(=O)[C@@H](CCCNC(=N)N)NC(=O)[C@H](CCCNC(=N)N)NC(=O)[C@H](Cc2ccc3ccccc3c2)NC(=O)[C@@H](Cc2ccccc2)NC1=O)C(N)=O)[C@@H](C)O)[C@@H](C)CC)C(C)(C)O`, in the data set with Jurkat, the inhibition entry was “Active”.
On to `CC(C)[C@H](NC(=O)[C@H](C)NC(=O)[C@@H](NC(=O)[C@@H]1CCCN1C(=O)[C@H](Cc1cnc[nH]1)NC(=O)[C@@H]1CCCN1C(=O)CNC(=O)COCCOCCNC(=O)CC[C@@H]1NC(=O)[C@@H](CCCNC(=N)N)NC(=O)[C@H](CCCNC(=N)N)NC(=O)[C@@H](CCCNC(=N)N)NC(=O)[C@H](CCCNC(=N)N)NC(=O)[C@H](Cc2ccc3ccccc3c2)NC(=O)[C@@H](Cc2ccccc2)NC1=O)C(C)C)C(=O)N[C@@H](C)C(=O)N[C@@H](C)C(=O)NCC(=O)N1CCC[C@H]1C(=O)N[C@@H](Cc1c[nH]cn1)C(=O)N[C@@H](CCC(=O)O)C(=O)N[C@@H](CCC(=O)O)C(=O)N[C@@H](CCCCN)C(N)=O`, for which the result in the data set with Mus musculus [2], in the data set with Mus musculus [3], with Mus musculus [4], in the data set with Mus musculus [5], in the data set with Mus musculus [6] and with Mus musculus [7] was inactive. In addition, the outcome in the data set with Mus musculus [8], in the data set on Mus musculus [9], in the data set with Mus musculus [10], in the data set with Mus musculus [12], with Mus musculus [13] and in the data set on Mus musculus [14] was inactive. For the same compound, the outcome in the data set on Mus musculus [16] and in the data set on Mus musculus [19] was inactive. The inhibition result with Macrophage [20] was “inactive”. Further, the inhibition result in the data set on Macrophage [21] and in the data set with Macrophage [22] was “Active” throughout.

What is called half-life is how long it takes for the measured level to halve. High values mean slow loss, low ones fast loss.
